Series [1] in a line: Antiradical activity assay (DPPH radical scavenging). To be noted: DPPH in ethanol, 30 min in the dark at room temperature, absorbance 520 nm; mean [SD] of 2 experiments. The procedure: The radical scavenging activity of test compounds was measured as previously described using 2,2-diphenyl-1-picrylhydrazyl (DPPH) as a stable radical with slight modifications. Particular care was taken in the preparation of the control (DPPH reagent + ethanol as a diluent without test compounds). Controls with O.D. of 0.350-0.360 at 520 nm were deemed as acceptable to avoid variations in IC50 calculations. 1 mL of DPPH in ethanol ([…]) was mixed with 1 mL of the test compounds at the indicated concentrations or their diluent (ethanol). Each mixture was then shaken vigorously and held in the dark for 30 min at room temperature. The absorbance of DPPH at 520 nm was then measured. The radical scavenging activity was expressed in terms of % inhibition of DPPH absorbance: (1) % Inhibition=[(Acontrol−Atest)/(Acontrol)] ×100, where A control is the absorbance of the control (DPPH solution without test compound) and A test is the absorbance of the test sample (DPPH solution plus compound). Data are expressed as means ± SD of 2 independent experiments, each performed in triplicate (Table 1). IC50 values were calculated from a sigmoidal concentration-response curve fitting model with a variable slope on GraphPad Prism 5 software (GraphPad software, San Diego, California).
Radical scavenging activities of analogous cinnamoyl esters 8a–h, cinnamoyl amides 9a–h, caffeoyl esters 15a–h, and caffeoyl amides 16a–h were assayed using 2,2-diphenyl-1-picrylhydrazyl (DPPH) as a stable radical and are expressed as IC50 concentrations in Table 1.
For orientation: Loss of DPPH colour is used to gauge radical scavenging.

Series [2] addresses T1, 5-LO (Homo sapiens, UniProt P09917).
T1 sequence (P09917 1-674): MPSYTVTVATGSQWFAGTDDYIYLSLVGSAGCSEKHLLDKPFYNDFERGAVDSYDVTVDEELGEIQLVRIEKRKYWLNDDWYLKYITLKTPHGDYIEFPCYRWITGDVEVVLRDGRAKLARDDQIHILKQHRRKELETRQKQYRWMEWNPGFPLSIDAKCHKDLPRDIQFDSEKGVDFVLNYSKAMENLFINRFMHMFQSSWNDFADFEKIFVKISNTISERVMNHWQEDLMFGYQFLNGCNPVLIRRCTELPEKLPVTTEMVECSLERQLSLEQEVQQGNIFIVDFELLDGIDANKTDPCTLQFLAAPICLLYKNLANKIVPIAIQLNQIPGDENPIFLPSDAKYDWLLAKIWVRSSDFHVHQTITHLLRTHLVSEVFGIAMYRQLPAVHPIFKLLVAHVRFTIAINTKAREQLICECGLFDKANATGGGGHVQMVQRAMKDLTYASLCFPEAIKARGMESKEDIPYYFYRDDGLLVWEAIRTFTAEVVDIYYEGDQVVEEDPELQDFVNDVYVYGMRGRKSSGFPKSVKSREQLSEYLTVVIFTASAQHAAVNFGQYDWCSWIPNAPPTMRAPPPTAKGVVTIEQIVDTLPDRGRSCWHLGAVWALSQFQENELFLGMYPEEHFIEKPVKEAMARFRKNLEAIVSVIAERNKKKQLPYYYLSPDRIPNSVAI
The series is described as follows: 5-LO products biosynthesis assay in whole HEK293 cells stably transfected with 5-LO and FLAP. More on the design: expressed in transfected cells. In kind it is cell-based. The following applies: for potency relative to Zileuton (1) in HEK293 cells: comparison of IC50 values; for 5-LO inhibition in whole HEK293 cells (in words): 1 μM. An excerpt:
HEK293 cells were cotransfected with a pcDNA3.1 vector expressing 5-LO and a pBUDCE4.1 vector expressing 5-LO activating protein (FLAP) using Polyfect reagent (QIAGEN, Mississauga, ON, Canada) according to the manufacturer's protocol. Stable transfections of HEK293 cells were obtained following cell culture in the presence of Geneticin and Zeocin (Invitrogen, Burlington, ON, Canada). The resulting stable double transfectants were propagated in culture and aliquots were frozen. Once thawed for a series of experiments, each aliquot of cells is cultured for a maximum of 6 weeks before being discarded.
For cell stimulation of 5-LO products, transfected HEK293 cells were collected following trypsinization, washed and the cell pellet was resuspended in Hank's balanced salt solution (HBSS) (Lonza, Walkersville, MD) containing 1.6 mM CaCl2 at a concentration of 5 × 10^5 cells mL^−1. Cells were preincubated with each compound at the indicated concentration for 5 min at 37°C. Cells were then stimulated for 15 minutes at 37°C with the addition of 10 μM calcium ionophore A23187 (Sigma-Aldrich, Oakville, ON, Canada) and 10 μM arachidonic acid (Cayman Chemical, Ann Arbor, MI). Stimulations were stopped and processed on RP-HPLC as described previously. Data are expressed as means ± SEM of 3 independent experiments, each performed in duplicate (Figures 2 and 3).

Series [3] concerns the target T1, 5-LO. Kind of series: 5-LO products biosynthesis assay in thapsigargin-stimulated human PMNL. More on the design: 5-LO is highly expressed in PMNL; endogenous in cells; host or cells: human PMNL from peripheral blood. The following applies: for potency relative to Zileuton (1) in human PMNL: comparison of IC50 values, thapsigargin-stimulated human PMNL; for IC50: read-out: Human PMNL IC50 (μM) [SD]. In kind it is cell-based. On the procedure:
Human PMNL were prepared from peripheral blood as described and were suspended in HBSS containing 1.6 mM CaCl2 (10^7 cells/mL) and preincubated with compounds for 5 min at 37°C in the presence of 1 U/mL of adenosine deaminase (Sigma-Aldrich, Oakville, ON, Canada). Cells were then stimulated for 15 min at 37°C with 1 μM thapsigargin (Sigma-Aldrich). Reactions were stopped by the addition of 0.5 volume of cold MeOH : CH3CN (1 : 1) and 50 ng of PGB2 as internal standard and samples were stored at −20°C until processing on octadecyl (C18) columns and RP-HPLC analysis as indicated above. Data are expressed as means ± SEM of 3 independent experiments, each performed in duplicate (Figures 4 and 5).
5-LO is highly expressed in PMNL and these cells are important producers of LTB4 [28, 32].

For series [4], the target named is T1, 5-LO. More on the design: expressed in transfected cells; method as in PMID 19152786. To be noted: 10 μM; cited from earlier work.

The term IC50 denotes the concentration needed to halve the response being measured. The term melting point denotes the temperature of the solid-liquid transition.

With `Cc1ccc(-c2cn(CCNC(=O)/C=C/c3ccc(O)c(O)c3)nn2)cc1` [16f], the melting point was 220 °C (dec.). Also, the IC50 in series [1] stood at 13 µM. Also, on 5-LO [2], the “potency relative to Zileuton (1) in HEK293 cells” value is “equipotent to Zileuton” and the “5-LO inhibition in whole HEK293 cells (in words)” value is on record as “no significant 5-LO inhibitory activity”. Also, at 5-LO [3], the “potency relative to Zileuton (1) in human PMNL” value was “less active than Zileuton” and the IC50 was determined as 8.2 µM.
Consider `O=C(/C=C/c1ccc(O)c(O)c1)NCCn1cc(-c2ccc(F)cc2)nn1` [16g], for which the melting point was 226 °C (dec.). Besides, the IC50 in series [1] amounted to 12 µM. For the same compound, on 5-LO [2], the “potency relative to Zileuton (1) in HEK293 cells” value is given as “equipotent to Zileuton” and the “5-LO inhibition in whole HEK293 cells (in words)” value is “no significant 5-LO inhibitory activity”. Further, on 5-LO [3], the “potency relative to Zileuton (1) in human PMNL” value is reported as “less active than Zileuton” and the IC50 worked out at 8.8 µM.
Compound `O=C(/C=C/c1ccccc1)OCCn1cc(COC(=O)/C=C/c2ccc(O)c(O)c2)nn1` [compound 4, reference compound] showed an IC50 in series [1] of 13.4 µM. In addition, the “5-LO inhibition in whole HEK293 cells (in words)” value at 5-LO [2] is recorded as “not significantly different than the control”. In addition, the “5-LO inhibition in whole cells” value at 5-LO [4] is reported as “near complete 5-LO inhibition”. Also, the “5-LO inhibition in stimulated human PMNL (in words)” value on 5-LO [3] (stimulated human PMNL, 1 μM) was “roughly equipotent with Zileuton”.
